Assay results as given in patent publication US9833463B2, “Sitagliptin tannate complex” (MERCK SHARP & DOHME CORP., priority 2014, dated 2017).

Format: physicochemical
Procedure: The dissolution profile of the sitagliptin tannate complexes of Example 1 and 2 using simulated saliva fluid (SSF) and simulated gastric fluid (SGF) by using the following two stage dissolution protocol:
Stage 1: A sample of sitagliptin tannate complex of Example 1 or 2 was placed in 10 mL of SSF, which was prepared by dissolving 8.0 g of NaCl, 0.19 g of potassium phosphate monobasic, and 2.38 g of sodium phosphate dibasic in 1 L of water, and adjusting to pH 6.8 with phosphoric acid, heated to 37° C., for 1 minute and an aliquot was removed.
Stage 2: The remaining solution transferred to 500 mL of SGF, which was prepared by dissolving 2.0 g of NaCl in 1 L of water, and adding 1.4 mL of concentrated hydrochloric acid. The SGF was stirred at 37° C. with apparatus 2 (paddles), and aliquots were collected at 6 time-points.
The aliquots were then analyzed by HPLC to determine the amount of free sitagliptin.

solubility of the complex at neutral pH | release in acidic pH (acidic pH, such as that found in the stomach) | release rate at neutral pH (neutral pH, such as that found in the mouth) | Substance | sitagliptin release from the complex in SGF (stage 2) (simulated gastric fluid (low pH), 37° C., apparatus 2 (paddles), 6 time-points, FIG. 1 / FIG. 2) | sitagliptin released from the complex in SSF (stage 1) (simulated saliva fluid pH 6.8, 37° C., 1 minute, FIG. 1 / FIG. 2)
not soluble or almost not soluble | immediate release | negligible release rate | sitagliptin tannate complex | – | –
– | – | – | sitagliptin tannate complex [Example 2] | rapidly released | very little to no sitagliptin was released
